What was measured:
[1] = test system: Botrytis cinerea, Cladosporium cladosporiodes, and Monilinia fructicola spores; experiment: Spore germination inhibition, overall rating over the three fungi; assay type: cell-based; settings: sum of all the germination scores; maximum 12 (greatest inhibition), minimum 0
Protocol: (§1) The effect of selected treatments on the germination of three other important horticultural fungi, Botrytis cinerea (causal agent of grey mould on grapes, kiwifruit, tomatoes, strawberries, etc), Monilinia fructicola (causal agent of brown rot on stonefruit), and Cladosporium cladosporiodes (one of the fungi that can cause sooty mould) were also assessed using the 96-multiwell assay of Wilson et al (10).
The Overall Rating is the sum of all the germination scores for each treatment (maximum possible value: 12 (greatest inhibition); minimum: 0 (no inhibition)).

[2] = test system: Squash (Cucurbita maxima) cv ‘Delica’; experiment: Trial 3 leaf health rating and phyto-toxicity; assay type: in vivo; design: key: A: Perfect condition - no abiotic or biotic blemishes.; B: Small blemishes e.g. chlorotic patches, rubbing, insect damage; C: Severe/advanced chlorosis, necrosis or leaf distortion; D: Leaf dead
Protocol: Qualitative assessments of leaf health/condition were made at the same time as disease severity assessments, using the arbitrary scale described below.
Leaf health ratings were assessed using the criteria described in Table 4. Each value presented in Table 12 is a median value rather than an arithmetic mean.

[3] = test system: cucurbit PM pathogen Sphaerotheca fuliginea; experiment: Trial 3 additional treatments, PM disease severity on ‘Delica’ squash leaves; assay type: in vivo; settings: non-inoculated leaves (FIG. 7)
Excerpt: Treatments were first applied 3 days after artificial inoculation of leaf 1, and at weekly intervals thereafter. There were 4 replicates per treatment, with two replicates per table per glasshouse.

[4] = test system: Monilinia fructicola spores; experiment: Spore germination inhibition, 96-multiwell assay; assay type: cell-based; design: key: ****: No germination (score 4); ***: Slight germination (3); **: Moderate germination (2); *: Germination, less than control (1); —: No activity = germination same as the control (score 0); settings: after 24 hours incubation at 19° C.
Protocol: as §1

[5] = test system: Cladosporium cladosporiodes spores; experiment: Spore germination inhibition, 96-multiwell assay; assay type: cell-based; design: key: ****: No germination (score 4); ***: Slight germination (3); **: Moderate germination (2); *: Germination, less than control (1); —: No activity = germination same as the control (score 0); settings: after 24 hours incubation at 19° C.
Protocol: as §1

Botrytis cinerea spores = experiment: Spore germination inhibition, 96-multiwell assay; assay type: cell-based; design: key: ****: No germination (score 4); ***: Slight germination (3); **: Moderate germination (2); *: Germination, less than control (1); —: No activity = germination same as the control (score 0); settings: after 24 hours incubation at 19° C.
Protocol: as §1

[6] = test system: cucurbit PM pathogen Sphaerotheca fuliginea; experiment: Trial 3 main treatments, PM disease severity on ‘Delica’ squash leaves; assay type: in vivo
Protocol: Squash (Cucurbita maxima) cv ‘Delica’ were raised and the first true leaf on each plant was artificially inoculated as in Trial 1.
Treatment applications were normally at 7-day intervals (although 14 and 21 day intervals were also used in Trial 3) and involved spraying all leaves to run-off (approximately 5 ml per leaf) using hand-held mister-bottles. The first application commenced 3-4 days after artificial inoculation (except for elicitor treatments in Trial 3), when the non-inoculated leaves on plants were still largely disease-free, and plants had up to 8 true leaves (i.e. were 5-6 weeks old).
Disease severity on true leaves 1-8 was rated weekly or fortnightly as discussed above.
Data were analysed as a repeated measures design (RMD) to determine the treatment effect on disease severity over time. Treatment differences at final disease assessment were also assessed as a randomised block design (RBD), by analysis of variance (ANOVA), with means separation by Fisher's Least Significant Difference (LSD) (P<0.05), using SAS software, version 8.01 TS (SAS Institute, Cary, N.C.).
Eight replicate squash plants per treatment (1 replicate per block) were assessed.
The first true leaf of each plant was artificially inoculated with PM, while all other leaves on the plant were allowed to infect naturally. Elicitors (treatments 13-15) were first applied 5 days before artificial inoculation, to allow time for induction of host defences prior to advent of the PM fungus, and every three weeks thereafter. […] All other treatments were first applied 3 days after artificial inoculation and at weekly (treatments 1-4, 7-8, 10-12, 16-20), fortnightly (treatment 5), or 3 weekly intervals (treatments 6 and 9) thereafter.
Treatment effect over time at 0, 2, 4, 6 and 7 weeks was assessed.

Compound | Overall Rating [1] | leaf health rating ([2]; Trial 3 additional, non-inoculated leaves, after 7 weeks) | course of PM disease severity over time [3] | Germination inhibition, Monilinia [4] | Germination inhibition, Clado. [5] | Germination inhibition, Botrytis (Botrytis cinerea spores) | leaf health rating ([2]; Trial 3 main, non-inoculated leaves after 7 weeks of treatment application, median value) | course of PM disease over time ([6]; inoculated leaves) | PM Disease Rating ([6]; inoculated leaves, 0 wks, scale 0-6 of Table 1) | PM Disease Rating ([6]; inoculated leaves, 2 wks) | PM Disease Rating ([6]; inoculated leaves, 4 wks) | PM Disease Rating ([6]; inoculated leaves, 6 wks) | PM Disease Rating ([6]; inoculated leaves, 7 wks) | course of natural PM infections over time ([6]; non-inoculated leaves, 0-7 weeks) | PM Disease Rating ([6]; non-inoculated leaves, 0 wks, scale 0-6 of Table 1) | PM Disease Rating ([6]; non-inoculated leaves, 2 wks) | PM Disease Rating ([6]; non-inoculated leaves, 4 wks) | PM Disease Rating ([6]; non-inoculated leaves, 6 wks) | PM Disease Rating ([6]; non-inoculated leaves, 7 wks)
Di-glycerine-mono-laurate [DGML] | 10 | E | increased significantly over time | **** | **** | ** |  |  |  |  |  |  |  |  |  |  |  |  | 
CCCCC/C=C\C/C=C\CCCCCCCC(=O)O [Linol, Linoleic acid] | 0 |  |  | — | — | — | F (More than 20% of the leaf area is dead) | disease increased steadily throughout the trial | 2.63 | 5.25 | 5.88 | 6.00 | 6.00 | rapid breakdown in protective activity | 0.63 | 2.77 | 5.56 | 6.00 | 6.00

Reference: patent US20080233202A1, “Fungicidal Compositions” (priority 2004, published 2008)
